A short description of the data set: Acute oral toxicity test in rats. To be noted: rat, in vivo, single oral dose in 0.5% methyl cellulose, read-out: lethal dose (LD50) for oral administration. The protocol:
In this test six-week old SPF SD rats were used with two rats assigned to each group. The compounds of examples 1, 2, 3, 5, 7, 8, 9, 10, 13, 14, 15, 19, 22, 23, 24, 25, 26, 28, 29, 30, 31, 32, 33, 34, 35, 36, 37, 38, 39, 40, 41, 44, 46, 47, 48, 49, 51, 52, 57, 58, 60, 62, 64, 67, 68, 69, 71 and 72 were suspended in 0.5% methyl cellulose, respectively, and administered orally at a single dose of 1 g/kg using a ball-tipped needle. The dosing volume was 10 ml/kg. […] All survivors at the end of the observation period underwent laparotomy under ether anesthesia and the blood samples were taken from the abdominal aorta for hematological tests and biochemical analysis. After sacrificing the animals, autopsy was performed for macroscopic observation of the organs and tissues. Tissue samples of vital organs from macroscopic legion were removed and fixed in 10% neutral buffered formalin solution, then processed by standard procedures for histopathology and examined under light microscope. There were no significant changes in clinical symptoms, body weight and mortalities. Also in hematology, serum chemistry parameters and macroscopic observation, no drug-related changes were observed.

Take `COC(OC)[C@]1(C)Oc2ccc([N+](=O)[O-])cc2[C@H](NC(=NC#N)Nc2ccc(Cl)cc2)[C@H]1O` [Example 1, (2R, 3R, 4S)-N''-cyano-N-(6-nitro-3,4-dihydro-3-hydroxy-2-methyl-2-dimethoxymethyl-2H-benzopyran-4-yl)-N'-(4-chlorophenyl)guanidine]: the LD50 is more than 1000 mg/kg.

`COC(OC)[C@]1(C)Oc2ccc([N+](=O)[O-])cc2[C@H](NC(=NC#N)Nc2cccc(Cl)c2)[C@H]1O` [Example 3, (2R, 3R, 4S)-N''-cyano-N-(6-nitro-3,4-dihydro-3-hydroxy-2-methyl-2-dimethoxymethyl-2H-benzopyran-4-yl)-N'-(3-chlorophenyl)guanidine]: the LD50 was more than 1000 mg/kg.

Regarding `COC(OC)[C@]1(C)Oc2ccc([N+](=O)[O-])cc2[C@H](NC(=NC#N)Nc2ccc([N+](=O)[O-])cc2)[C@H]1O` [Example 5, (2R, 3R, 4S)-N''-cyano-N-(6-nitro-3,4-dihydro-3-hydroxy-2-methyl-2-dimethoxymethyl-2H-benzopyran-4-yl)-N'-(4-nitrophenyl)guanidine], the LD50 is more than 1000 mg/kg.

Consider `COc1ccc(NC(=NC#N)N[C@H]2c3cc([N+](=O)[O-])ccc3O[C@@](C)(C(OC)OC)[C@@H]2O)cc1` [Example 8, (2R, 3R, 4S)-N''-cyano-N-(6-nitro-3,4-dihydro-3-hydroxy-2-methyl-2-dimethoxymethyl-2H-benzopyran-4-yl)-N'-(4-methoxyphenyl) guanidine], for which the LD50 is more than 1000 mg/kg.

With `COc1ccc(NC(=NC#N)N[C@@H]2c3cc([N+](=O)[O-])ccc3O[C@@](C)(C(OC)OC)[C@H]2O)cc1` [Example 9, (2R, 3S, 4R)-N''-cyano-N-(6-nitro-3,4-dihydro-3-hydroxy-2-methyl-2-dimethoxymethyl-2H-benzopyran-4-yl)-N'-(4-methoxyphenyl) guanidine], the LD50 was more than 1000 mg/kg.

Regarding `COC(OC)[C@@]1(C)Oc2ccc([N+](=O)[O-])cc2[C@@H](NC(=NC#N)Nc2cccc(Cl)c2)[C@@H]1O` [Example 13, (2S, 3S, 4R)-N''-cyano-N-(6-nitro-3,4-dihydro-3-hydroxy-2-methyl-2-dimethoxymethyl-2H-benzopyran-4-yl)-N'-(3-chlorophenyl)guanidine], the LD50 is more than 1000 mg/kg.

As for `COC(OC)[C@@]1(C)Oc2ccc([N+](=O)[O-])cc2[C@H](NC(=NC#N)Nc2cccc(C(F)(F)F)c2)[C@H]1O` [Example 14, (2S, 3R, 4S)-N''-cyano-N-(6-nitro-3,4-dihydro-3-hydroxy-2-methyl-2-dimethoxymethyl-2H-benzopyran-4-yl)-N'-(3-trifluoromethylphenyl)guanidine], the LD50 is more than 1000 mg/kg.

Turning to `COC(OC)[C@]1(C)Oc2ccc([N+](=O)[O-])cc2[C@@H](NC(=NC#N)Nc2ccc(C)cc2)[C@@H]1O` [Example 19, (2R, 3S, 4R)-N''-cyano-N-(6-nitro-3,4-dihydro-3-hydroxy-2-methyl-2-dimethoxymethyl-2H-benzopyran-4-yl)-N'-(4-methylphenyl)guanidine], the LD50 was more than 1000 mg/kg.

For `COC(OC)[C@]1(C)Oc2ccc([N+](=O)[O-])cc2[C@@H](NC(=NC#N)NCc2ccccc2)[C@@H]1O` [Example 23, (2R, 3S, 4R)-N''-cyano-N-(6-nitro-3,4-dihydro-3-hydroxy-2-methyl-2-dimethoxymethyl-2H-benzopyran-4-yl)-N'-benzylguanidine], the LD50 was more than 1000 mg/kg.

Consider `COC(OC)[C@]1(C)Oc2ccccc2[C@H](NC(=NC#N)Nc2ccc(Cl)cc2)[C@H]1O` [Example 26, (2R, 3R, 4S)-N''-cyano-N-(3,4-dihydro-3-hydroxy-2-methyl-2-dimethoxymethyl-2H-benzopyran-4-yl)-N'-(4-chlorophenyl)guanidine], for which the LD50 was more than 1000 mg/kg.

As to `C[C@]1(CO)Oc2ccc([N+](=O)[O-])cc2[C@H](NC(=NC#N)Nc2ccc(Cl)cc2)[C@H]1O` [Example 28, (2R, 3R, 4S)-N''-cyano-N-(6-nitro-3,4-dihydro-3-hydroxy-2-methyl-2-hydroxymethyl-2H-benzopyran-4-yl)-N'-(4-chlorophenyl)guanidine], the LD50 is more than 1000 mg/kg.

For `C[C@]1(CO)Oc2ccc([N+](=O)[O-])cc2[C@@H](NC(=NC#N)Nc2ccc(Cl)cc2)[C@@H]1O` [Example 29, (2R, 3S, 4R)-N''-cyano-N-(6-nitro-3,4-dihydro-3-hydroxy-2-methyl-2-hydroxymethyl-2H-benzopyran-4-yl)-N'-(4-chlorophenyl)guanidine], the LD50 is more than 1000 mg/kg.

On to `COC[C@@]1(C)Oc2ccc([N+](=O)[O-])cc2[C@H](NC(=NC#N)Nc2ccc(Cl)cc2)[C@H]1O` [Example 30, (2R, 3R, 4S)-N''-cyano-N-(6-nitro-3,4-dihydro-3-hydroxy-2-methyl-2-methoxymethyl-2H-benzopyran-4-yl)-N'-(4-chlorophenyl)guanidine], for which the LD50 is more than 1000 mg/kg.

For the molecule `COC[C@@]1(C)Oc2ccc([N+](=O)[O-])cc2[C@@H](NC(=NC#N)Nc2ccc(Cl)cc2)[C@@H]1O` [Example 31, (2R, 3S, 4R)-N''-cyano-N-(6-nitro-3,4-dihydro-3-hydroxy-2-methyl-2-methoxymethyl-2H-benzopyran-4-yl)-N'-(4-chlorophenyl)guanidine], the LD50 was more than 1000 mg/kg.

Turning to `COC(OC)[C@@]1(C)Oc2ccc([N+](=O)[O-])cc2[C@@H](NC(=NC#N)Nc2ccccc2Cl)[C@@H]1O` [Example 33, (2S, 3S, 4R)-N''-cyano-N-(6-nitro-3,4-dihydro-3-hydroxy-2-methyl-2-dimethoxymethyl-2H-benzopyran-4-yl)-N'-(2-chlorophenyl)guanidine], the LD50 was more than 1000 mg/kg.

For `COC(OC)[C@@]1(C)Oc2ccc([N+](=O)[O-])cc2[C@H](NC(=NC#N)Nc2ccccc2C(F)(F)F)[C@H]1O` [Example 34, (2S, 3R, 4S)-N''-cyano-N-(6-nitro-3,4-dihydro-3-hydroxy-2-methyl-2-dimethoxymethyl-2H-benzopyran-4-yl)-N'-(2-trifluoromethylphenyl)guanidine], the LD50 was more than 1000 mg/kg.

`COC(OC)[C@@]1(C)Oc2ccc([N+](=O)[O-])cc2[C@@H](NC(=NC#N)Nc2ccccc2C(F)(F)F)[C@@H]1O` [Example 35, (2S, 3S, 4R)-N''-cyano-N-(6-nitro-3,4-dihydro-3-hydroxy-2-methyl-2-dimethoxymethyl-2H-benzopyran-4-yl)-N'-(2-trifluoromethylphenyl)guanidine]: the LD50 is more than 1000 mg/kg.

With `COC(OC)[C@@]1(C)Oc2ccc([N+](=O)[O-])cc2[C@H](NC(=NC#N)NCc2ccccc2Cl)[C@H]1O` [Example 36, (2S, 3R, 4S)-N''-cyano-N-(6 - nitro-3,4-dihydro-3-hydroxy-2-methyl-2-dimethoxymethyl-2H-benzopyran-4-yl)-N'-(2-chlorobenzyl)guanidine], the LD50 was more than 1000 mg/kg.

Turning to `COC(OC)[C@@]1(C)Oc2ccc([N+](=O)[O-])cc2[C@@H](NC(=NC#N)NCc2ccccc2Cl)[C@@H]1O` [Example 37, (2S, 3S, 4R)-N''-cyano-N-(6-nitro-3,4-dihydro-3-hydroxy-2-methyl-2-dimethoxymethyl-2H-benzopyran-4-yl)-N'-(2-chlorobenzyl)guanidine], the LD50 was more than 1000 mg/kg.

As for `COC(OC)[C@]1(C)C=C(NC(=NC#N)NCc2ccccc2)c2cc([N+](=O)[O-])ccc2O1` [Example 39, (2S)-N''-cyano-N-(6-nitro-2-methyl-2-dimethoxymethyl-2H-benzopyran-4-yl)-N'-benzylguanidine], the LD50 is more than 1000 mg/kg.

In the case of `COC(OC)[C@@]1(C)Oc2ccc(C#N)cc2[C@H](NC(=NC#N)Nc2ccc(Cl)cc2)[C@H]1O` [Example 44, (2S, 3R, 4S)-N''-cyano-N-(6-cyano-3,4-dihydro-3-hydroxy-2-methyl-2-dimethoxymethyl-2H-benzopyran-4-yl)-N'-(4-chlorophenyl)guanidine], the LD50 is more than 1000 mg/kg.

On to `COC(OC)[C@@]1(C)Oc2ccc(C#N)cc2[C@H](NC(=NC#N)NCc2ccccc2)[C@H]1O` [Example 46, (2S, 3R, 4S)-N''-cyano-N-(6-cyano-3,4-dihydro-3-hydroxy-2-methyl-2-dimethoxymethyl-2H-benzopyran-4-yl)-N'-benzylguanidine], for which the LD50 was more than 1000 mg/kg.

In the case of `COC(OC)[C@@]1(C)Oc2ccc(Br)cc2[C@@H](NC(=NC#N)NCc2ccccc2)[C@@H]1O` [Example 47, (2S, 3S, 4R)-N''-cyano-N-(6-bromo-3,4-dihydro-3-hydroxy-2-methyl-2-dimethoxymethyl-2H-benzopyran-4-yl)-N'-benzylguanidine], the LD50 was more than 1000 mg/kg.

For `COc1ccc(CNC(=NC#N)N[C@@H]2c3cc([N+](=O)[O-])ccc3O[C@](C)(C(OC)OC)[C@H]2O)cc1OC` [Example 48, (2S, 3S, 4R)-N''-cyano-N-(6-nitro-3,4-dihydro-3-hydroxy-2-methyl-2-dimethoxymethyl-2H-benzopyran-4-yl)-N'-(3,4-dimethoxybenzyl) guanidine], the LD50 was more than 1000 mg/kg.

As for `COc1ccc(CNC(=NC#N)N[C@@H]2c3cc(N)ccc3O[C@](C)(C(OC)OC)[C@H]2O)cc1OC` [Example 49, (2S, 3S, 4R)-N''-cyano-N-(6-amino-3,4-dihydro-3-hydroxy-2-methyl-2-dimethoxymethyl-2H-benzopyran-4-yl)-N'-(3,4-dimethoxybenzyl) guanidine], the LD50 is more than 1000 mg/kg.

On to `COc1ccc(CNC(=NC#N)N[C@@H]2c3cc(N)ccc3O[C@](C)(C(OC)OC)[C@H]2O)cc1` [Example 51, (2S,3S,4R)-N''-cyano-N-(6-amino-3,4-dihydro-3-hydroxy-2-methyl-2-dimethoxymethyl-2H-benzopyran-4-yl)-N'-(4-methoxybenzyl) guanidine], for which the LD50 was more than 1000 mg/kg.

These data come from patent publication EP1228058B1, “BENZOPYRANYL GUANIDINE DERIVATIVES, PROCESS FOR PREPARATION THEREOF, AND PHARMACEUTICAL COMPOSITIONS CONTAINING THEM” (Dongbu Hannong Chemical Co., Ltd., priority 1999, dated 2001).
